From patent EP0211457A2, “Novel (4-substituted-piperazinyl)pyridazines” (JANSSEN PHARMACEUTICA N.V., priority 1985, dated 1987)
Structures can show the parent of a compound that is named as a salt.

Key:
Wistar rats = assay: Acetic Acid-Induced Writhing in Rats Test; assay type: in vivo; conditions: Rattus norvegicus, ip, 0.5 ml 1% acetic acid i.p., compound given 15 min after acetic acid, writhes counted 60-75 min after acetic acid, dose reducing to less than 16 writhes in 50% of the animals, read-out: Writhing in Rats Test ED50 in mg/kg body weight
Protocol: The Acetic Acid-Induced Writhing in Rats Test is known to be a useful tool for the evaluation of the analgesic properties of given test compound (see in connection herewith Drug Research, 25, 1505-1509 (1975)).
Wistar rats weighing about 100g were used throughout. They were injected i.p. with 0.5 ml of a 1% aqueous solution of acetic acid and placed in individual glass containers for observation. […] 5 Min. later (15 min. after the acetic acid treatment) the test compound was administered. […] The lowest effective dose in 50% of the test animals (ED₅₀) was determined as that dose in mg/kg body weight capable of reducing the number of writhes during the 15 minutes observation period to less than 16 writhes in 50% of the tested animals.
Said ED₅₀ values for a number of compounds having the formula (I) and the pharmaceutically acceptable acid-addition salts thereof are gathered in Table 1.

Male Wistar rats = assay: Tail Withdrawal Test; assay type: in vivo; conditions: Rattus norvegicus, iv, tail immersed in water at 55°C, dose suppressing the tail withdrawal response for more than 10 seconds in 50% of the animals, read-out: Tail Witdrawal Test ED50 in mg/kg body weight
Protocol: Male Wistar rats weighing 200g ± 5g were fasted overnight, water being available at libitum. Aqueous solutions, made isotonic with sodium chloride, of the test compounds at various concentrations were administered to the test animals intraveneously (i.v.). The thus treated rats were put into individual restraining cages. At various time periods after administration, the lower 5 cm portion of the tail was immersed into a cup filled with water at a constant temperature of 55°C. The typical tail withdrawal response was evaluated during a 10 sec. period after the immersion. ED₅₀ values in mg/kg body weight were determined as that dose of the test compound capable of suppressing in 50% of the tested animals the typical tail withdrawal response during a time period exceeding 10 seconds. Said ED₅₀ values for a number of compounds having the formula (I) and the pharma- ceutically acceptable acid-addition salts thereof are gathered in Table 1.

| Structure (SMILES) | ED50 (Wistar rats) [mg/kg] | ED50 (Male Wistar rats) [mg/kg] |
| --- | --- | --- |
| Clc1ccc(N2CCN(C/C=C/c3ccccc3)CC2)nn1 [compound 1, (E)-3-chloro-6-[4-(3-phenyl-2-propenyl)-1-piperazinyl]pyridazine] | 5 | 20 |
| CC1CN(C/C=C/c2ccccc2)CCN1c1ccc(Cl)nn1 (centres unmarked) [compound 2, (E)-3-chloro-6-[2-methyl-4-(3-phenyl-2-propenyl)-1-piperazinyl]pyridazine monohydrochloride.hemihydrate] | 5 | 10 |
| Brc1ccc(N2CCN(C/C=C/c3ccccc3)CC2)nn1 [compound 3, (E)-3-bromo-6-[4-(3-phenyl-2-propenyl)-1-piperazinyl]pyridazine] | 10 |  |
| COc1ccc(N2CCN(C/C=C/c3ccccc3)CC2)nn1 [compound 4, (E)-3-methoxy-6-[4-(3-phenyl-2-propenyl)-1-piperazinyl]pyridazine] | 5 | 40 |
| Clc1ccc(/C=C/CN2CCN(c3ccc(Cl)nn3)CC2)cc1 [compound 5, (E)-3-chloro-6-[4-[3-(4-chlorophenyl)-2-propenyl]-1-piperazinyl]pyridazine] | 40 |  |
| Clc1ccc(N2CCCN(C/C=C/c3ccccc3)CC2)nn1 [compound 7] | 20 | 40 |
| C(=C\c1ccccc1)/CN1CCN(c2cccnn2)CC1 [compound 8] | 2.5 |  |
| COc1ccc(N2CCN(C/C=C/c3ccc(F)cc3)CC2)nn1 [compound 9] | 10 |  |
| Fc1ccc(/C=C/CN2CCN(c3ccc(Cl)nn3)CC2)cc1 [compound 10] | 20 |  |
| Fc1ccc(/C=C/CN2CCN(c3cccnn3)CC2)cc1 [compound 11] | 40 |  |
| Clc1ccc(N2CCN(C/C=C/c3cccs3)CC2)nn1 [compound 12] | 10 |  |
| Cc1ccc(/C=C/CN2CCN(c3ccc(Cl)nn3)CC2)cc1 [compound 13] | 40 |  |
| COc1ccc(/C=C/CN2CCN(c3ccc(Cl)nn3)CC2)cc1 [compound 14] | 40 |  |
| COc1ccc(/C=C/CN2CCN(c3cccnn3)CC2)cc1 [compound 18] | 40 |  |
| C(=C\c1ccccc1)/CN1CCCN(c2ccc(-c3ccccc3)nn2)CC1 [compound 19] | 10 |  |
| Cl.Cl.Clc1ccc(N2CCN(C/C=C/c3ccccc3)CC2)nn1 [compound 37, (E)-3-chloro-6-[4-(3-phenyl-2-propenyl)-1-piperazinyl]pyridazine dihydrochloride] | 10 | < 40 |
| [O-][N+]1(C/C=C/c2ccccc2)CCN(c2ccc(Cl)nn2)CC1 [compound 38, (E)-3-chloro-6-[4-(3-phenyl-2-propenyl)-1-piperazinyl]pyridazine, 4-oxide] | 10 | ≥ 20 |
